Drawing on patent US20240050577A1, “CDK INHIBITORS AND PHARMACEUTICAL USES THEREOF” (RISEN (SUZHOU) PHARMA TECH CO., LTD., priority 2022, published 2024), this text covers IC50 for 17 compounds.

Each structure is given as a SMILES string.

This test concerns OVCAR3 cells. Kind of test: Cell proliferation study (Cell Titer Glo, 72 h). To be noted: Homo sapiens, OVCAR-3, luminescence, read-out: IC50, inhibitory effect on cellular proliferation. The test is classed as cell-based. On the procedure:
OVCAR3 (Cobioer, CBP60294) cell line in logarithmic growth phase was used for these experiments. The cell density was adjusted to 1.1×10^4/mL and the cells were inoculated into a 96-well cell culture plate (Corning, 3599), 95 μL per well (the number of cells per well was 1×10^3). The culture plate was placed in an incubator, with 5% carbon dioxide, at 37° C. and incubated overnight. On the next day, a 10 mM stock solution of test compound was prepared in DMSO (Sigma, RNBF5902). After gradient dilution, a series of working solutions with different concentrations of test compound was prepared using complete medium. Working solution was added into the corresponding wells of the orifice plate, and the plate was placed in a 5% carbon dioxide incubator and cultivated at 37° C. for 72 h, and then removed from the incubator. To each well was added 50 μL Cell Tier Glo (Promega, G7573), and the plate was incubated at room temperature for 10 min, followed by luminescence detection with an enzyme marker. The inhibition curve was obtained with GraphPad 7.0 software using four-parameter equation.
For the compound `C[C@@]1(O)CCC[C@H]1n1c(=O)ccc2cnc(NC3CCN(S(=O)(=O)C4CCN(C5CC6(CC(NC(=O)C7CCN(c8cc9c(cc8F)C(=O)N(C8CCC(=O)NC8=O)C9=O)CC7)C6)C5)CC4)CC3)nc21` (some centres unmarked) [Compound 86], the IC50 was in the range of 0.101 to 1 µM. Turning to `C[C@@]1(O)CCC[C@H]1n1c(=O)ccc2cnc(NC3CCN(S(=O)(=O)NCCOCc4cn(CCOCCOCCNc5cccc6c5C(=O)N(C5CCC(=O)NC5=O)C6=O)nn4)CC3)nc21` (some centres unmarked) [Compound 91], the IC50 was in the range of 1 to 5 µM.

On to `C[C@@]1(O)CCC[C@H]1n1c(=O)ccc2cnc(Nc3ccc(S(=O)(=O)C4CCN(CC5CCN(c6cccc7c6C(=O)N(C6CCC(=O)NC6=O)C7=O)CC5)CC4)cc3)nc21` (some centres unmarked) [Compound 44], for which the IC50 is more than 10 µM. In the case of `CC(C)N1CCOc2c(F)cc(-c3nc(Nc4ccc(S(=O)(=O)N5CCN(C6CN(C7CCN(c8cccc9c8C(=O)N(C8CCC(=O)NC8=O)C9=O)CC7)C6)CC5)cc4)ncc3F)cc21` (centres unmarked) [Compound 52], the IC50 lay within 1 to 5 µM. Regarding `CC(C)N1CCOc2c(F)cc(-c3nc(Nc4ccc(S(=O)(=O)N5CCN(CC6CCN(c7cccc8c7C(=O)N(C7CCC(=O)NC7=O)C8=O)CC6)CC5)cc4)ncc3F)cc21` (centres unmarked) [Compound 54], the IC50 is more than 10 µM. Next, `C[C@@]1(O)CCC[C@H]1n1c(=O)ccc2cnc(Nc3ccc(S(=O)(=O)C4CCN(C5CCC6(CC5)CN(c5cc7c(cc5F)C(=O)N(C5CCC(=O)NC5=O)C7=O)C6)CC4)cc3)nc21` (some centres unmarked) [Compound 45]: more than 10 µM. `C[C@@]1(O)CCC[C@H]1n1c(=O)ccc2cnc(Nc3ccc(S(=O)(=O)N4CCC5(CCN(C6CN(c7cc8c(cc7F)C(=O)N(C7CCC(=O)NC7=O)C8=O)C6)CC5)CC4)cc3)nc21` (some centres unmarked) [Compound 58]: the IC50 lay within 1 to 5 µM. With `C[C@@]1(O)CCC[C@H]1n1c(=O)ccc2cnc(NC3CCN(S(=O)(=O)C4CCN(C(=O)C5CC6(CCN(c7cc8c(cc7F)C(=O)N(C7CCC(=O)NC7=O)C8=O)CC6)C5)CC4)CC3)nc21` (some centres unmarked) [Compound 77], the IC50 was 1 to 5 µM. Next, `CC(C)N1CCOc2c(F)cc(-c3nc(Nc4ccc(C5CCN(CCOCCOCCNc6cccc7c6C(=O)N(C6CCC(=O)NC6=O)C7=O)CC5)cn4)ncc3F)cc21` (centres unmarked) [Compound 2]: more than 10 µM; `C[C@@]1(O)CCC[C@H]1n1c(=O)ccc2cnc(NC3CCN(S(=O)(=O)C4CCN(C(=O)C5CCN(c6cc7c(cc6F)C(=O)N(C6CCC(=O)NC6=O)C7=O)CC5)CC4)CC3)nc21` (some centres unmarked) [Compound 67]: 0.101 to 1 µM; `Cc1nc2c(F)cc(-c3nc(N[C@@H]4CCN(S(=O)(=O)C5CCN(CC6CCN(c7cc8c(cc7F)C(=O)N(C7CCC(=O)NC7=O)C8=O)CC6)CC5)C[C@H]4O)ncc3Cl)cc2n1C(C)C` (some centres unmarked) [Compound 112]: 0.101 to 1 µM. Regarding `CC(C)N1CCOc2c(F)cc(-c3nc(Nc4ccc(S(=O)(=O)N5CCN(C6CC7(CCN(c8cccc9c8C(=O)N(C8CCC(=O)NC8=O)C9=O)CC7)C6)CC5)cc4)ncc3F)cc21` (centres unmarked) [Compound 72], the IC50 is more than 10 µM. The same measure for `Cc1nc2c(F)cc(-c3nc(Nc4ccc(S(=O)(=O)C5CCN(CC6CCN(C7CN(c8cc9c(cc8F)C(=O)N(C8CCC(=O)NC8=O)C9=O)C7)CC6)CC5)cc4)ncc3F)cc2n1C(C)C` (centres unmarked) [Compound 65]: 0.101 to 1 µM; for `Cc1nc2c(F)cc(-c3nc(NC4CCN(S(=O)(=O)C5CCN(CC6CC7CCC(C6)N7c6cc7c(cc6F)C(=O)N(C6CCC(=O)NC6=O)C7=O)CC5)CC4)ncc3F)cc2n1C(C)C` (centres unmarked) [Compound 99]: 0.101 to 1 µM; for `Cc1nc2c(F)cc(-c3nc(Nc4ccc(S(=O)(=O)NCCOCCOCCNc5cc6c(cc5F)C(=O)N(C5CCC(=O)NC5=O)C6=O)cc4)ncc3F)cc2n1C(C)C` (centres unmarked) [Compound 69]: 1 to 5 µM. The same measure for `C[C@@]1(O)CCC[C@H]1n1c(=O)ccc2cnc(NC3CCN(S(=O)(=O)C4CCN(C(=O)C56CC(NCC7CCN(c8cc9c(cc8F)C(=O)N(C8CCC(=O)NC8=O)C9=O)CC7)(C5)C6)CC4)CC3)nc21` (some centres unmarked) [Compound 36]: 0.101 to 1 µM; for `C[C@@]1(O)CCC[C@H]1n1c(=O)ccc2cnc(NC3CCN(S(=O)(=O)N4CCN(CC5CCN(c6cc7c(cc6F)C(=O)N(C6CCC(=O)NC6=O)C7=O)CC5)CC4)CC3)nc21` (some centres unmarked) [Compound 60]: 1 to 5 µM.
